The target of this assay is T1, MAP4K1 (HPK1) (Homo sapiens, UniProt Q92918).
T1 construct: purchased Invitrogen
The assay can be described thus: Inhibition of MAP4K1 biochemical enzymatic activity (EZReader 2 electrophoretic mobility shift assay). To be noted: HPK1 (Invitrogen), S6K2tide 1.5 μM, 120 min; ATP 26 μM or 1000 μM (not stated which). The source says: MAP4K1 (HPK1) and relevant off-target enzymatic activity was monitored using the Perkin Elmer electrophoretic mobility shift technology platform—the EZReader 2. […] Within the linear, steady-state phase of the kinase enzymatic reaction, the mixed pool of phosphorylated (product) and non-phosphorylated (substrate) peptides was passed through the microfluidic system of the PerkinElmer EZ Reader 2, under an applied electric potential difference. The presence of the phosphate group on the product peptide provided a difference in mass and charge between that of the substrate peptide, resulting in a separation of the substrate and product pools in the sample (Perrin et al. 2010). As the product and substrate peptide mixture passes the lasers within the instrument, these pools are detected (λex=488 nm, λem=568 nm) and resolved as separate peaks. The ratio between these peaks reflects the activity of the compound at that concentration, in that well, under those conditions.
Inhibitors were dissolved in 100% DMSO at a stock concentration of 10 mM. A 100×, 10-point, 4-fold serial dilution of each inhibitor was created in 100% DMSO either manually or on a Hamilton STAR liquid handler, starting at a relevant concentration, usually 1 mM. A volume of 0.130 μL of each concentration was transferred to the relevant wells of a 384-well plate (Greiner 781 201) in diplicate using a TTPLabtech Mosquito nano-litre dispenser. Using a Multidrop Combi, the remaining constituents of the kinase reaction were added to the 130 nL of dosed compound as follows (see table below for final reaction details):
Enzyme activity assays at the ^APPKM for ATP or 1 mM ATP: In each well of a 384-well plate, 0.1-15 nM of untreated enzyme was incubated in a total of 13 μL of buffer (100 mM HEPES pH 7.5, 0.015% Brij 35, 10 mM MgCl2, 1 mM DTT) with 1.5 μM fluorescent peptid and 20-1000 μM ATP, at 25° C., for 60-180 minutes in the presence or absence of a dosed concentration series of compound (1% DMSO final concentration). The kinase reactions were stopped by the addition of 70 μl of Stop buffer (100 mM HEPES pH 7.5, 0.015% Brij 35, 35 mM EDTA and 0.2% of Coating Reagent 3 (Caliper Lifesciences)). The plates were read on a Caliper EZReader 2 as described above.
On the technique in general: In EMSA bound probe runs differently from free probe, usually more slowly.

T1 sequence (Q92918 whole entry): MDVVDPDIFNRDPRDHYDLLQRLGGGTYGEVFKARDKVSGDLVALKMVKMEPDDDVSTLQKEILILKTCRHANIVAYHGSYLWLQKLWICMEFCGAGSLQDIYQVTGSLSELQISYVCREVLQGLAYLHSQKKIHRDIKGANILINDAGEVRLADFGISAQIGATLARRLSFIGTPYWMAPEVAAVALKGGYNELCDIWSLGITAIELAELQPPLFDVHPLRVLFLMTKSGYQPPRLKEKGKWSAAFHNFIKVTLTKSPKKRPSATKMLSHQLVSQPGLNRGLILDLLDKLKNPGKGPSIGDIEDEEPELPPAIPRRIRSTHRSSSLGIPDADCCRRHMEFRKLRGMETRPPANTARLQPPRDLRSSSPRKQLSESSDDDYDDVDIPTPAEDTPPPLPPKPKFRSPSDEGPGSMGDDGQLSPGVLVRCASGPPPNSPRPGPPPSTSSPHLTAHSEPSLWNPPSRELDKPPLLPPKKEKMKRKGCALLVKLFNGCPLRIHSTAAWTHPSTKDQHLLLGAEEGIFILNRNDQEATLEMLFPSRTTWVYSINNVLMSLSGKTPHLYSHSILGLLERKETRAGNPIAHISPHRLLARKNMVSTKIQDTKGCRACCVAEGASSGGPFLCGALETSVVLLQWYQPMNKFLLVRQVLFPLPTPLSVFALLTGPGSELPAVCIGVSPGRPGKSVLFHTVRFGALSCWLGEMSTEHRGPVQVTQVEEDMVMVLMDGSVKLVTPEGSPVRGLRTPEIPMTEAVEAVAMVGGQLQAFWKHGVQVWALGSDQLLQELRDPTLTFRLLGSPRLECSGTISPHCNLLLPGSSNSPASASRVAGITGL

Take `CC(=O)N1CC(Oc2ncc(C(C)(C)N)c3cc(Nc4ccc5c(n4)[C@H](C)COC5=O)ncc23)C1` (single isomer, unassigned) [Compound 17]: the IC50 was determined as 0.49 nM. For `CC(=O)N1CC(Oc2ncc(C(C)(C)N)c3cc(Nc4ccc5c(n4)[C@@H](C)COC5=O)ncc23)C1` (single isomer, unassigned) [Compound 18] the value was 3.06 nM; for `CC[C@@H](N)c1cnc(OC2CN(C(=O)[C@@H]3C[C@@H]3F)C2)c2cnc(Nc3ccc4c(n3)[C@@H](C)[C@H](C)OC4=O)cc12` (single isomer, unassigned) [Compound 58], 0.75 nM. For `CO[C@@H](C)C(=O)N1CC(Oc2ncc(C(C)(C)N)c3cc(Nc4ccc5c(n4)[C@@H](C)C(C)(C)OC5=O)ncc23)C1` (single isomer, unassigned) [Compound 86] the value was 0.27 nM; for `CO[C@H](C)C(=O)N1CC(Oc2ncc(C(C)(C)N)c3cc(Nc4ccc5c(n4)[C@@H](C)C(C)(C)OC5=O)ncc23)C1` (single isomer, unassigned) [Compound 88], 0.21 nM. Take `C[C@@H]1c2nc(Nc3cc4c(C(C)(C)N)cnc(OC[C@@H]5C[C@H]5C(=O)N(C)C)c4cn3)ccc2C(=O)OC1(C)C` (single isomer, unassigned) [Compound 104]: the IC50 worked out at 0.2 nM. Take `C[C@@H]1c2nc(Nc3cc4c(C(C)(C)N)cnc(OC[C@H]5C[C@@H]5C(=O)N(C)C)c4cn3)ccc2C(=O)OC1(C)C` (single isomer, unassigned) [Compound 105]: the IC50 was 0.2 nM. As to `C[C@@H]1c2nc(Nc3cc4c(C(C)(C)N)cnc(OC[C@H]5C[C@H]5C(=O)N(C)C)c4cn3)ccc2C(=O)OC1(C)C` (single isomer, unassigned) [Compound 106], the IC50 was found to be 0.39 nM. In the case of `C[C@@H]1c2nc(Nc3cc4c(C(C)(C)N)cnc(OC[C@@H]5C[C@@H]5C(=O)N(C)C)c4cn3)ccc2C(=O)OC1(C)C` (single isomer, unassigned) [Compound 107], the IC50 came to 0.31 nM.

Turning to `CC[C@H](N)c1cnc(O[C@H]2C[C@@H](C(=O)N3CC(OC)C3)C2)c2cnc(Nc3ccc4c(n3)[C@@H](C)C(C)(C)OC4=O)cc12` (single isomer, unassigned) [Compound 126], the IC50 came out at 1.81 nM.

Regarding `CCC(=O)N1CC(Oc2ncc(C(C)(C)N)c3cc(Nc4ccc5c(n4)[C@@H](C)[C@H](C)OC5=O)ncc23)C1` [Compound 2], the IC50 was found to be 0.38 nM.

Take `COC[C@@](C)(N)c1cnc(OC2CN(C(=O)C3CC3)C2)c2cnc(Nc3ccc4c(n3)[C@@H](C)C(C)(C)OC4=O)cc12` [Compound 16]: the IC50 came out at 0.47 nM.

`CC[C@@](C)(N)c1cnc(OC2CN(C(C)=O)C2)c2cnc(Nc3ccc4c(n3)[C@@H](C)[C@H](C)OC4=O)cc12` [Compound 23]: the IC50 came to 0.32 nM.

As to `CC(=O)N1CC[C@@H](Oc2ncc(C(C)(C)N)c3cc(Nc4ccc5c(n4)[C@@H](C)[C@H](C)OC5=O)ncc23)C1` [Compound 24], the IC50 was 0.89 nM. For `CC(=O)N1CC[C@H](Oc2ncc(C(C)(C)N)c3cc(Nc4ccc5c(n4)[C@@H](C)[C@H](C)OC5=O)ncc23)C1` [Compound 25] the value was 1.38 nM; for `CC(=O)N1CC(C)(Oc2ncc(C(C)(C)N)c3cc(Nc4ccc5c(n4)[C@@H](C)[C@H](C)OC5=O)ncc23)C1` [Compound 26], 0.31 nM. The figure for `COC(=O)N1CC(Oc2ncc(C(C)(C)N)c3cc(Nc4ccc5c(n4)[C@@H](C)[C@H](C)OC5=O)ncc23)C1` [Compound 27] is 0.3 nM; for `CC(=O)N(C)CCOc1ncc(C(C)(C)N)c2cc(Nc3ccc4c(n3)[C@@H](C)C(C)(C)OC4=O)ncc12` [Compound 28] it is 0.29 nM. The figure for `CC(=O)N1CC(Oc2ncc(C(C)(C)N)c3cc(Nc4ccc5c(n4)C4(CC4)C(C)(C)OC5=O)ncc23)C1` [Compound 30] is 0.2 nM; for `CC[C@@](C)(N)c1cnc(OC2CN(C(C)=O)C2)c2cnc(Nc3ccc4c(n3)[C@@H](C)C(C)(C)OC4=O)cc12` [Compound 32] it is 0.17 nM.

As a reminder, the IC50 is the midpoint of a concentration-inhibition curve.

Values taken from patent US20240199648A1, “MAP4K1 INHIBITORS” (Blueprint Medicines Corporation, priority 2021, published 2024).
